Laboratory results from patent US8865751B2, “Thiazoles, imidazoles, and pyrazoles useful as inhibitors of protein kinases” (Vertex Pharmaceuticals Incorporated, priority 2006, dated 2014).
pKi: −log10 of the molar value. Like-named read-outs stand apart in the source and are kept apart here.

Key:
human Src kinase = human Src kinase (Homo sapiens, UniProt P12931); assay: Src inhibition assay (spectrophotometric coupled-enzyme assay); assay type: biochemical; settings: 25 nM Src, 100 μM ATP, poly Glu,Tyr (4:1), 30° C.
Sequence of human Src kinase (P12931 whole entry): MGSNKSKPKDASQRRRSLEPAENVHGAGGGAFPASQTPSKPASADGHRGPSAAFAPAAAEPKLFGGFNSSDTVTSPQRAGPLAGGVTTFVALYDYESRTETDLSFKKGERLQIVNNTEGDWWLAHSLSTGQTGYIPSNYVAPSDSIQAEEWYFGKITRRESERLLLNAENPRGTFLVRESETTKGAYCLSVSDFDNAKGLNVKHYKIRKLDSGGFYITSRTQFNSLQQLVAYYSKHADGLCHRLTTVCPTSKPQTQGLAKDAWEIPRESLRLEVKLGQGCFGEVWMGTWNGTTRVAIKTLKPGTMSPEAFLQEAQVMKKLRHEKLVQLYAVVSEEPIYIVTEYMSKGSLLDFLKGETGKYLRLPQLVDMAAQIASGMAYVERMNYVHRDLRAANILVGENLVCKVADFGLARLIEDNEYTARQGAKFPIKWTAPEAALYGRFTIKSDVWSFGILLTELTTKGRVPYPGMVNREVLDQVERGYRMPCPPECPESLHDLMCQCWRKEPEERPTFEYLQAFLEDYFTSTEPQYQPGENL
Procedure: The compounds are evaluated as inhibitors of human Src kinase using a spectrophotometric assay.
An assay buffer solution was prepared which consisted of 25 mM HEPES (pH 7.5), 10 mM MgCl2, 250 μM NADH, 3 mM phosphoenolpyruvate, 60 μg/mL pyruvate kinase, 21 μg/mL lactate dehydrogenase, 113 μM ATP and 28 nM Src. To 60 μL of this solution, in a 96 well plate, was added 2 μL of test compound stock solution in DMSO and the mixture allowed to equilibrate for 10 mins at 30° C. The enzyme reaction was initiated by the addition of 5 μL 10 mg/mL poly Glu, Tyr (4:1) prepared in 25 mM HEPES (pH 7.5). Final assay concentrations of Src and ATP were 25 nM and 100 μM respectively. Initial rate data was determined from the rate of change of absorbance at 340 nm (corresponding to stoichiometric consumption of NADH) using a Molecular Devices Spectramax plate reader (Sunnyvale, Calif.) over 10 mins at 30° C. For each Ki determination 8 data points covering the test compound concentration range of 0-7.5 μM were obtained in duplicate. Ki values were calculated from initial rate data by non-linear regression using the Prism software package (Prism 4.0a, Graphpad Software, San Diego, Calif.).

human Lck kinase = human Lck kinase (Homo sapiens, UniProt P06239); assay: Lck inhibition assay (spectrophotometric coupled-enzyme assay); assay type: biochemical
Sequence of human Lck kinase (P06239 whole entry): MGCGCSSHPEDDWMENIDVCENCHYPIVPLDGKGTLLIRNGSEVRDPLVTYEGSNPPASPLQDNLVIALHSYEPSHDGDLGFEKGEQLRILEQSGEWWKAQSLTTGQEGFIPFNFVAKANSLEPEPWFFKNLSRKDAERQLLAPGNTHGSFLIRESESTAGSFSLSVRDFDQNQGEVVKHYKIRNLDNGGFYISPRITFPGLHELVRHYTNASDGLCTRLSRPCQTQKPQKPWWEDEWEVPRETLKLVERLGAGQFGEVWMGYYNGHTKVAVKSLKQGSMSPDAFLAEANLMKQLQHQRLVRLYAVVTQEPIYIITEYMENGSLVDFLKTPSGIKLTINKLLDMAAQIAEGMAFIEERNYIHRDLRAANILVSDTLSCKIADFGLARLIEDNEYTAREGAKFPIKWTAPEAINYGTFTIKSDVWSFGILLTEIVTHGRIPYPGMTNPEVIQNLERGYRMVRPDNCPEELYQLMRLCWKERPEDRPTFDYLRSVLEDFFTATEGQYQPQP
Procedure: The compounds are evaluated as inhibitors of human Lck kinase using a spectrophotometric assay.
An assay buffer solution was prepared which consisted of 25 mM HEPES (pH 7.5), 10 mM MgCl2, 250 μM NADH, 3 mM phosphoenolpyruvate, 43 μg/mL pyruvate kinase, 14 μg/mL lactate dehydrogenase, 560 μM ATP and 67 nM Lck. To 60 μL of this solution, in a 96 well plate, was added 2 μL of test compound stock solution in DMSO and the mixture allowed to equilibrate for 10 minutes at 30° C. The enzyme reaction was initiated by the addition of 5 μL 15 mg/mL poly Glu, Tyr (4:1) prepared in 25 mM HEPES (pH 7.5). Final assay concentrations of Lck and ATP are 60 nM and 500 μM respectively. Initial rate data was determined from the rate of change of absorbance at 340 nm (corresponding to stoichiometric consumption of NADH) using a Molecular Devices Spectramax plate reader (Sunnyvale, Calif.) over 10 min at 30° C. For each Ki determination 8 data points covering the test compound concentration range of 0-7.5 μM are obtained in duplicate. Ki values are calculated from initial rate data by non-linear regression using the Prism software package (Prism 4.0a, Graphpad Software, San Diego, Calif.).

[1] = Solubility under the Lck assay conditions; assay type: physicochemical; settings: Lck assay buffer conditions
[2] = 60 nM Lck, 500 μM ATP, poly Glu,Tyr (4:1), 30° C., read-out: Ki value, inhibition of Lck

SMILES | pKi (human Src kinase) | pKi (human Lck kinase; [2]) | pKi (human Lck kinase; read-out: Ki value, inhibition of Lck (expected)) | solubility under the assay conditions [1]
NC(=O)c1[nH]c(C2CCCC2)nc1-c1ccc(Oc2ccccc2)cc1 [Compound I-1] | 6.30 to 7.00 | > 7.00 | – | –
NC(=O)c1cn(C2CCCC2)nc1-c1ccc(Oc2ccccc2)cc1 [Compound I-2, 1-Cyclopentyl-3-(4-phenoxyphenyl)-1H-pyrazole-4-carboxamide] | < 6.00 | 6.30 to 7.00 | – | –
NC(=O)c1sc(C2CCCC2)nc1-c1ccc(Oc2ccccc2)cc1 [Compound I-3, 2-Cyclopentyl-4-(4-phenoxyphenyl)thiazole-5-carboxamide] | < 6.00 | 6.30 to 7.00 | – | –
NC(=O)c1sc(C2CCCCC2)nc1-c1ccc(Oc2ccccc2)cc1 [Compound I-4] | < 6.00 | – | > 6.00 | relatively low
